Assay results from US6586439B2, “Pharmaceutically active compounds” (Pfizer Inc., priority 1999, dated 2003).

System: cGMP PDE5
Assay: In vitro PDE inhibitory activity against cGMP PDE5 (batch method or scintillation proximity assay)
Assay type: biochemical, human or rabbit
Method: In vitro PDE inhibitory activities against cyclic guanosine 3′,5′-monophosphate (cGMP) and cyclic adenosine 3′,5′-monophosphate (cAMP) phosphodiesterases were determined by measurement of their IC50 values (the concentration of compound required for 50% inhibition of enzyme activity).
The required PDE enzymes were isolated from a variety of sources, including human corpus cavernosum, human and rabbit platelets, human cardiac ventricle, human skeletal muscle and bovine retina, essentially by the method of W. J. Thompson and M. M. Appleman (Biochem., 1971, 10, 311). In particular, the cGMP-specific PDE (PDE5) and the cGMP-inhibited cAMP PDE (PDE3) were obtained from human corpus cavernosum tissue, human platelets or rabbit platelets; the cGMP-stimulated PDE (PDE2) was obtained from human corpus cavernosum; the calcium/calmodulin (Ca/CAM)-dependent PDE (PDE1) from human cardiac ventricle; the cAMP-specific PDE (PDE4) from human skeletal muscle; and the photoreceptor PDE (PDE6) from bovine retina. Phosphodiesterases 7-11 were generated from full length human recombinant clones transfected into SF9 cells.
Assays were performed either using a modification of the “batch” method of W. J. Thompson et al. (Biochem., 1979, 18, 5228) or using a scintillation proximity assay for the direct detection of AMP/GMP using a modification of the protocol described by Amersham plc under product code TRKQ7090/7100. In summary, the effect of PDE inhibitors was investigated by assaying a fixed amount of enzyme in the presence of varying inhibitor concentrations and low substrate, (cGMP or cAMP in a 3:1 ratio unlabelled to [^3H]-labeled at a conc ˜1/3 Km) such that IC50 ≅Ki. The final assay volume was made up to 100 μl with assay buffer [20 mM Tris-HCl pH 7.4, 5 mM MgCl2, 1 mg/ml bovine serum albumin]. Reactions were initiated with enzyme, incubated for 30-60 min at 30° C. to give <30% substrate turnover and terminated with 50 μl yttrium silicate SPA beads (containing 3 mM of the respective unlabelled cyclic nucleotide for PDEs 9 and 11). Plates were re-sealed and shaken for 20 min, after which the beads were allowed to settle for 30 min in the dark and then counted on a TopCount plate reader (Packard, Meriden, Conn.) Radioactivity units were converted to % activity of an uninhibited control (100%), plotted against inhibitor concentration and inhibitor IC50 values obtained using the ‘Fit Curve’ Microsoft Excel extension.

For `CCCOc1ccc(S(=O)(=O)N2CCN(CC)CC2)cc1-c1nc2[nH]cnc2c(=O)[nH]1` [Example 1, 2-[5-(4-Ethylpiperazin-1-ylsulfonyl)-2-n-propoxyphenyl]-9H-purin-6-one], the “Percentage inhibition of PDE 5” value (Concentration 100 nM) was 47.
In the case of `CCCOc1ccc(S(=O)(=O)N2CCN(CC)CC2)cc1-c1nc2c(ncn2-c2ccc(N)cc2)c(=O)[nH]1` [Example 4, 9-(4-Aminophenyl)-2-[5-(4-ethylpiperazin-1-ylsulfonyl)-2-n-propoxy-phenyl]purin-6-one], the “Percentage inhibition of PDE 5” value (Concentration 10 nM) is reported as 74.1.
For `CCCOc1ccc(S(=O)(=O)N2CCN(C)CC2)cc1-c1nc2[nH]c(-c3cccnc3)nc2c(=O)[nH]1` [Example 5, 2-[5-(4-Methylpiperazin-1-ylsulfonyl)-2-n-propoxyphenyl]-8-(pyridin-3-yl)-9H-purin-6-one], the “Percentage inhibition of PDE 5” value (Concentration 100 nM) was 48.
With `CCCCOc1ncc(S(=O)(=O)N2CCN(CC)CC2)cc1-c1nc2c(nc(Cc3ccccc3)n2CCC)c(=O)[nH]1` [Example 7, 8-Benzyl-2-[2-n-butoxy-5-(4-ethylpiperazin-1-ylsulfonyl)pyridin-3-yl]-9-n-propylpurin-6-one] the “Percentage inhibition of PDE 5” value (Concentration 10 nM) was 80.3.
In the case of `CCCOc1ccc(S(=O)(=O)N2CCN(c3ccccn3)CC2)cc1-c1nc2c(ncn2CCC)c(=O)[nH]1` [Example 9, 2-(2-n-Propoxy-5-[4-{pyridin-2-yl}piperazin-1-ylsulfonyl]phenyl)-9-n-propylpurin-6-one], the “Percentage inhibition of PDE 5” value (Concentration 10 nM) is reported as 100.
